For test [1], the target named is human APJ-AT1R (angiotensin Type 1) double stable CHO cell line (Homo sapiens (Human), UniProt P35414). Nature of the test: IP1 accumulation (TR-FRET), AngII cooperativity, APJ-AT1R double stable cells. In kind it is cell-based. The conditions noted are these: APJ small molecule agonists in the presence of AngII. In general terms: In TR-FRET formats the signal depends on donor and acceptor labels being close together.
Procedure: Single and double stable recombinant cell lines were generated for human APJ and the AT1R receptor in CHO K1 cells tagged either with FLAG or hemagglutinin (HA) tag. Briefly, the CHO-K1 APJ/AT1R cells were seeded in culture medium of DMEM-F12 and 10% FBS at a density of 15 k/well in a 96 well plate overnight. The next day, the culture medium was replaced with medium containing no serum for 4 h. The compound AngII at a range of concentrations (1 pM-10 μM) with or without different concentrations of APJ agonists were diluted in stimulation buffer and added to the cell plate. The plate was sealed and incubated for 1 h. This was followed by addition of IP-d2 conjugate followed by europium cryptate antibody conjugate into the wells. The plate was sealed, followed with incubation for 2 h at RT. Time-resolved fluorescence resonance energy (TR-FRET) at 620 nm and 665 nm was measured after 2 h with an Envision reader. The signal ratios and delta F were calculated and the amount of IP1 produced was inversely proportional to the TR-FRET ratio, 665/620 nm.

A further test concerns the target human APJ receptor (Homo sapiens (Human), UniProt P35414). Nature of the test: biochemical. Format: biochemical. The conditions noted are these: read-out: Activity hAPJ SPA EC50 IP. An outline of the steps:
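[35S]GTPγS binding to membranes from CHO cells stably expressing human APJ, captured on WGA PS beads (5 μg/well). Buffer: 20 mM HEPES pH 7.5, 5 mM MgCl2, 100 mM NaCl, 0.1% BSA, with 3 μM GDP and 0.1 nM [35S]GTPγS final; compounds tested as 22-point 2-fold dilutions.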

The test system of a further test is heart failure rats. Nature of the test: Cardiac function with ACE inhibitor captopril and APJ agonist in heart failure rats in vivo. More on the design: species or system rat. The conditions noted are these: captopril alone, acute settings. An excerpt: The interaction between […] (ACE2) and Apelin biology is complicated. To investigate the interaction between the Apelin-APJ and ACE signalling pathways, we examined the improvement in cardiac function with APJ small molecule agonists in the presence of ACE inhibitor captopril in heart failure rats in vivo. […] However, in the presence of an APJ agonist, there was a shift in potency to the left with marked improvement in contractility and ejection fraction without changes in heart rate. These findings provide a new reference for the understanding of the regulation of ACE2 for the renin angiotensin aldosterone system (RAAS), independent of AT1R signaling and offer new potential drug targets for the treatment of diseases such as hypertension and heart failure. This work clearly establishes that combination of an agonist of the APJ receptor with an ARB such as losartan and/or with an ACE inhibitor such as captopril which may play an important role in providing greater efficacy in treating heart failure patients, for example in improving contractility and ejection fraction without changing the heart rate.

The mark [2] stands for this setting: [35S]GTPγS binding, membranes from CHO cells stably expressing human APJ receptor.

Read-outs that look alike come from different tables or passages of the source.

Chain of human APJ receptor (P35414 whole entry): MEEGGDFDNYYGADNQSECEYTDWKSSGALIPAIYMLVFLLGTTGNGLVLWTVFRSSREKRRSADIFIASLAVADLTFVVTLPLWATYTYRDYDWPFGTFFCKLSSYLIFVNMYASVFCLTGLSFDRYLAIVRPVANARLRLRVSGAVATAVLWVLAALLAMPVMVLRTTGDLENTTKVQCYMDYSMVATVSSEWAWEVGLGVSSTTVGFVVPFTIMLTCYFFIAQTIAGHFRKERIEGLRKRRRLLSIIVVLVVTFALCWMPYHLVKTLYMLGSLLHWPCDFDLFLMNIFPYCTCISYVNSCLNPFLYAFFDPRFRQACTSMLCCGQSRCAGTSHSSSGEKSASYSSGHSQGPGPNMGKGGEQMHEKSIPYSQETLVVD
Chain of human APJ-AT1R (angiotensin Type 1) double stable CHO cell line (P35414 whole entry): as above

Consider `CCCCc1nc(Cl)c(CO)n1Cc1ccc(-c2ccccc2-c2nn[nH]n2)cc1` [losartan], for which the “effect of losartan on APJ agonist induced cooperativity” value in test [1] is recorded as “relieved this cooperativity”.

As usually defined, the EC50 is the concentration giving half of the maximal effect. Consider “(1R,2S)-1-(5-chloro-2-pyrimidinyl)-N-(5-((1R)-1-cyclopropylethyl)-4-(4,6-dimethoxy-5-pyrimidinyl)-4H-1,2,4-triazol-3-yl)-1-methoxy-2-propanesulfonamide and (1R,2S)-1-(5-chloro-2-pyrimidinyl)-N-(5-((1S)-1-cyclopropylethyl)-4-(4,6-dimethoxy-5-pyrimidinyl)-4H-1,2,4-triazol-3-yl)-1-methoxy-2-propanesulfonamide [Example 167.0]”, for which the EC50 on human APJ receptor (setting [2]) is 110 nM.

Turning to `C[C@H](CS)C(=O)N1CCC[C@H]1C(=O)O` [Captopril, captopril], the “contractility or ejection fraction” value in the test with heart failure rats was “does not show a marked improvement in contractility or ejection fraction”.

`COc1ncnc(OC)c1-n1c(Cc2ccccc2)nnc1NS(=O)(=O)[C@@H](C)[C@H](C)c1ncc(Cl)cn1` [Example 21.0, (2S,3R)-N-(5-benzyl-4-(4,6-dimethoxy-5-pyrimidinyl)-4H-1,2,4-triazol-3-yl)-3-(5-chloro-2-pyrimidinyl)-2-butanesulfonamide]: the EC50 at human APJ receptor (setting [2]) turned out to be 120 nM.

Regarding `COCc1nnc(NS(=O)(=O)[C@@H](C)[C@H](C)c2ncc(Cl)cn2)n1-c1c(OC)ncnc1OC` [Example 11.0, (2S,3R)-3-(5-chloro-2-pyrimidinyl)-N-(4-(4,6-dimethoxy-5-pyrimidinyl)-5-(methoxymethyl)-4H-1,2,4-triazol-3-yl)-2-butanesulfonamide], the EC50 on human APJ receptor (setting [2]) came to 88 nM.

Consider `COCCOCc1nnc(NS(=O)(=O)[C@@H](C)[C@H](C)c2ncc(Cl)cn2)n1-c1c(OC)cccc1OC` [Example 151.0], for which the EC50 at human APJ receptor turned out to be 24 nM.

`COc1ncnc(OC)c1-n1c(NS(=O)(=O)[C@@H](C)[C@H](C)c2ncc(Cl)cn2)nnc1[C@@H](C)OC` (single isomer, unassigned) [Example 4.0, (2S,3R)-3-(5-chloro-2-pyrimidinyl)-N-(4-(4,6-dimethoxy-5-pyrimidinyl)-5-((1R)-1-methoxyethyl)-4H-1,2,4-triazol-3-yl)-2-butanesulfonamide or (2S,3R)-3-(5-chloro-2-pyrimidinyl)-N-(4-(4,6-dimethoxy-5-pyrimidinyl)-5-((1S)-1-methoxyethyl)-4H-1,2,4-triazol-3-yl)-2-butanesulfonamide]: the EC50 on human APJ receptor (setting [2]) stood at 270 nM.

Take `CC[C@@H](OC)c1nnc(NS(=O)(=O)[C@@H](C)[C@H](C)c2ncc(Cl)cn2)n1-c1c(OC)ncnc1OC` (single isomer, unassigned) [Example 7.0, (2S,3R)-3-(5-chloro-2-pyrimidinyl)-N-(4-(4,6-dimethoxy-5-pyrimidinyl)-5-((1R)-1-methoxypropyl)-4H-1,2,4-triazol-3-yl)-2-butanesulfonamide or (2S,3R)-3-(5-chloro-2-pyrimidinyl)-N-(4-(4,6-dimethoxy-5-pyrimidinyl)-5-((1S)-1-methoxypropyl)-4H-1,2,4-triazol-3-yl)-2-butanesulfonamide]: on human APJ receptor (setting [2]), the EC50 came to 360 nM.

Consider `COCc1nnc(NS(=O)(=O)[C@@H](C)[C@H](OC)c2ncc(Cl)cn2)n1-c1c(OC)ncnc1OC` [Example 58.0, (1R,2S)-1-(5-chloropyrimidin-2yl)-N-(4-(4.6-dimethoxypyrimidin-5-yl)-5-(methoxymethyl)-4H-l,2,4-triazol-3-yl)-1-methoxypropane-2-sulfonamide], for which the EC50 at human APJ receptor was 330 nM.

Take `COCc1nnc(NS(=O)(=O)[C@@H](C)[C@@H](OC(C)C)c2ncc(F)cn2)n1-c1c(OC)cccc1OC` [Example 154.0]: the EC50 at human APJ receptor came to 6.6 nM.

As for `COCc1nnc(NS(=O)(=O)[C@@H](C)[C@H](C)c2cnc(C)cn2)n1-c1c(OC)cccc1OC` [Example 8.0, (2S,3R)-N-(4-(2,6-dimethoxyphenyl)-5-(methoxymethyl)-4H-1,2,4-triazol-3-yl)-3-(5-methyl-2-pyrazinyl)-2-butanesulfonamide], the EC50 on human APJ receptor (setting [2]) was determined as 260 nM.

Turning to `COCc1nnc(NS(=O)(=O)[C@@H](C)[C@H](OC)c2ncc(Cl)cn2)n1C1(COC)CC1` [Example 145.0], the EC50 at human APJ receptor (setting [2]) was found to be 240 nM.

On to `COc1cccc(OC)c1-n1c(CO)nnc1NS(=O)(=O)[C@@H](C)[C@H](OC)c1ncc(Cl)cn1` [Example 64.0, (1R,2S)-1-(5-chloropyrimidin-2-yl)-N-(4-(2,6-dimethoxyphenyl)-5-(hydroxymethyl)-4H-1.2.4-triazol-3-yl)-1-methoxypropane-2-sulfonamide], for which the EC50 at human APJ receptor worked out at 20 nM.

As to `COc1ncnc(OC)c1-n1c(NS(=O)(=O)[C@@H](C)[C@H](C)c2ncc(Cl)cn2)nnc1[C@@H](C)OC(C)C` (single isomer, unassigned) [Example 3.0, (2S,3R)-3-(5-chloro-2-pyrimidinyl)-N-(4-(4,6-dimethoxy-5-pyrimidinyl)-5-((1R)-1-(1-methylethoxy)ethyl)-4H-1,2,4-triazol-3-yl)-2-butanesulfonamide or (2S,3R)-3-(5-chloro-2-pyrimidinyl)-N-(4-(4,6-dimethoxy-5-pyrimidinyl)-5-((1S)-1-(1-methylethoxy)ethyl)-4H-1,2,4-triazol-3-yl)-2-butane sulfonamide], the EC50 at human APJ receptor (setting [2]) stood at 320 nM.

These data come from patent US11191762B2, “Alkyl substituted triazole compounds as agonists of the APJ Receptor” (priority 2016, dated 2021).
